Square brackets hold non-standard residues; d marks the D form. Nle = CCCC[C@H](N)C(=O)O
Assays:
[1] = Cytotoxicity against human TZM-bl cells by MTS assay; type: cell-based
[2] = tested on: Human immunodeficiency virus 1; experiment: Antiviral activity against HIV1 NL4-3 assessed as inhibition of viral fusion with human TZM-bl cells after 48 hrs by steady glo luciferase reporter gene assay; type: functional, organism-based; conditions: Human immunodeficiency virus 1, NL4-3, TZM-bl

Substance	CC50 [1]	IC50 [2]
H-W[Nle]EWDRKIEEYTKKIEELIKKSQEQQEKNEKELKREREREG-OH	> 5000 nM	1.82 nM
enfuvirtide	> 5000 nM	45.2 nM

Reference: ChEMBL document CHEMBL2413030, “Multimerized CHR-derived peptides as HIV-1 fusion inhibitors” (Bioorg Med Chem, 2013)
